Measurements: US6586441B2, “Adenosine receptor ligands and their use in the treatment of disease” (Hoffman-La Roche Inc., priority 2000, dated 2003)
Where a name gives a salt, the structure may show the parent alone.

These compounds were tested against T1, human adenosine A2A receptor (Homo sapiens, UniProt P29274) (assay: Human adenosine A2A receptor [3H]-SCH-58261 binding assay). Conditions: not given.
T1 construct: expressed in transfected cells; host or cells: CHO cells, semliki forest virus expression system; membrane preparation
T1 sequence (P29274 whole entry): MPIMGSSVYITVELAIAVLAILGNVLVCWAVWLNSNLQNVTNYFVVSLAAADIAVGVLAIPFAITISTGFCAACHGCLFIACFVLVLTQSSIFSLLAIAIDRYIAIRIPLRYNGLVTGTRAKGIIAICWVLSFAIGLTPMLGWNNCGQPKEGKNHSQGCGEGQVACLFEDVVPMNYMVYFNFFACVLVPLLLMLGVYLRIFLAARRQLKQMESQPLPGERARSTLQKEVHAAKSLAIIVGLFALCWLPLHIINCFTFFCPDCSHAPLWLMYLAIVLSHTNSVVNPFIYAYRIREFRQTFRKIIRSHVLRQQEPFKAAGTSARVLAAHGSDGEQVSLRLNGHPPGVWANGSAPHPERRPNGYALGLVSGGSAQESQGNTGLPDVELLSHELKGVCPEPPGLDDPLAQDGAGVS
Procedure: The gene encoding human adenosine A2A receptor was recombinantly introduced and expressed in chinese hamster ovary (CHO) cells using the semliki forest virus expression system. Cells were harvested, washed twice by centrifugation, homogenised and again washed by centrifugation. The final washed membrane pellet was suspended in a Tris (50 mM) buffer containing 120 mM NaCl, 5 mM KCl, 2 mM CaCl2 and 10 mM MgCl2 (pH 7.4) (buffer A). The [^3H]-SCH-58261 (Dionisotti et al., 1997, Br. J. Pharmacol. 121, 353; 1 nM) binding assay was carried out in 96-well plates in the presence of 2.5 μg of membrane protein, 0.5 mg of Ysi-poly-1-lysine SPA beads and 0.1 U adenosine deaminase in a final volume of 200 μl of buffer A. Non-specific binding was defined using xanthine amine congener (XAC; […]). Compounds were tested at 10 concentrations from 10 μM-0.3 nM. All assays were conducted in duplicate and repeated at least two times. Assay plates were incubated for 1 hour at room temperature before centrifugation and then bound ligand determined using a Packard Topcount scintillation counter. IC50 values were calculated using a non-linear curve fitting program and Ki values calculated using the Cheng-Prussoff equation.

| SMILES | Ki [nM] |
| --- | --- |
| N#Cc1c(-c2ccccc2)nc(N)nc1-c1ccco1 [Example 148, 2-Amino-4-furan-2-yl-6-phenyl-pyrimidine-5-carbonitrile] | 6.46 |

Same assay, conditions: human A2a receptor, membranes of CHO cells, [3H]-SCH-58261; read-out: pKi (affinity to the human A2a receptor) (converted)

| SMILES | Ki [nM] |
| --- | --- |
| N#Cc1c(NCC2CCc3ccccc3N2)nc(N)nc1-c1ccco1 (racemic) [Example 299, (RS)-2-Amino-4-furan-2-yl-6-[(1,2,3,4-tetrahydro-quinolin-2-ylmethyl)-amino]-pyrimidine-5-carbonitrile] | 6.31 |
| CSc1nc(N)nc(-c2ccc3c(c2)OCCO3)c1C#N [Example 23, 2-Amino-4-(2,3-dihydro-benzo[1,4]dioxin-6-yl)-6-methylsulfanyl-pyrimidine-5-carbonitrile] | 9.12 |
| N#Cc1c(-c2ccco2)nc(N)nc1N1CCCCC1 [Example 41, 2-Amino-4-furan-2-yl-6-piperidin-1-yl-pyrimidine-5-carbonitrile] | 8.51 |
| N#Cc1c(OC2CCCCC2)nc(N)nc1-c1ccco1 [Example 55, 2-Amino-4-cyclohexyloxy-6-furan-2-yl-pyrimidine-5-carbonitrile] | 7.41 |
| N#Cc1c(NCCc2ccc(O)cc2)nc(N)nc1-c1ccco1 [Example 58, 2-Amino-4-furan-2-yl-6-[2-(4-hydroxy-phenyl)-ethylamino]-pyrimidine-5-carbonitrile] | 6.46 |
| CCCCSc1nc(N)nc(-c2ccco2)c1C#N [Example 60, 2-Amino-4-butylsulfanyl-6-furan-2-yl-pyrimidine-5-carbonitrile] | 4.57 |
| CC(C)Oc1nc(N)nc(-c2ccco2)c1C#N [Example 61, 2-Amino-4-furan-2-yl-6-isopropoxy-pyrimidine-5-carbonitrile] | 6.92 |
| N#Cc1c(SCCCc2ccccc2)nc(N)nc1-c1ccccc1 [Example 85, 2-Amino-4-phenyl-6-(3-phenyl-propylsulfanyl)-pyrimidine-5-carbonitrile] | 7.94 |
| N#Cc1nc(N)nc(-c2ccco2)c1C#N [Example 94, 2-Amino-6-furan-2-yl-pyrimidine-4,5-dicarbonitrile] | 9.77 |
| COc1ccc(CCNc2nc(N)nc(-c3ccco3)c2C#N)cc1 [Example 144, 2-Amino-4-furan-2-yl-6-[2-(4-methoxy-phenyl)-ethylamino]-pyrimidine-5-carbonitrile] | 2.82 |
| N#Cc1c(OCc2ccccn2)nc(N)nc1-c1cccs1 [Example 206, 2-Amino-4-(pyridin-2-ylmethoxy)-6-thiophen-2-yl-pyrimidine-5-carbonitrile] | 9.55 |
| Cc1ccc(-c2nc(N)nc(NCc3ccccc3)c2C#N)o1 [Example 245, 2-Amino-4-benzylamino-6-(5-methyl-furan-2-yl)-pyrimidine-5-carbonitrile] | 5.5 |
| Cc1cccc(COc2nc(N)nc(-c3ccc(C)o3)c2C#N)n1 [Example 246, 2-Amino-4-(5-methyl-furan-2-yl)-6-(6-methyl-pyridin-2-ylmethoxy)-pyrimidine-5-carbonitrile] | 1.86 |
| Cc1ccc(-c2nc(N)nc(OCc3ccccn3)c2C#N)o1 [Example 247, 2-Amino-4-(5-methyl-furan-2-yl)-6-(pyridin-2-ylmethoxy)-pyrimidine-5-carbonitrile] | 2.14 |

Next, values leading:

| Ki [nM] | SMILES |
| --- | --- |
| 2.51 | N#Cc1c(NCCCc2ccccc2)nc(N)nc1-c1ccco1 [Example 44, 2-Amino-4-furan-2-yl-6-(3-phenyl-propylamino)-pyrimidine-5-carbonitrile] |
| 3.8 | N#Cc1c(OCc2ccccc2)nc(N)nc1-c1ccco1 [Example 47, 2-Amino-4-benzyloxy-6-furan-2-yl-pyrimidine-5-carbonitrile] |
| 3.98 | N#Cc1c(SCc2ccccc2)nc(N)nc1-c1ccco1 [Example 52, 2-Amino-4-benzylsulfanyl-6-furan-2-yl-pyrimidine-5-carbonitrile] |
| 6.31 | N#Cc1c(OCCc2ccccc2)nc(N)nc1-c1ccco1 [Example 53, 2-Amino-4-furan-2-yl-6-phenethyloxy-pyrimidine-5-carbonitrile] |
| 7.41 | N#Cc1c(OCCCc2ccccc2)nc(N)nc1-c1ccco1 [Example 54, 2-Amino-4-furan-2-yl-6-(3-phenyl-propoxy)-pyrimidine-5-carbonitrile] |
| 2.09 | N#Cc1c(OCc2ccccn2)nc(N)nc1-c1ccco1 [Example 76, 2-Amino-4-furan-2-yl-6-(pyridin-2-ylmethoxy)-pyrimidine-5-carbonitrile] |
| 3.98 | N#Cc1c(OCCc2ccccc2)nc(N)nc1-c1ccccc1 [Example 104, 2-Amino-4-phenethyloxy-6-phenyl-pyrimidine-5-carbonitrile] |
| 7.41 | N#Cc1c(OCc2ccccn2)nc(N)nc1-c1ccccc1 [Example 105, 2-Amino-4-phenyl-6-(pyridin-2-ylmethoxy)-pyrimidine-5-carbonitrile] |
| 9.33 | Nc1nc(OCc2ccccn2)c(Br)c(-c2ccco2)n1 [Example 168, 5-Bromo-4-furan-2-yl-6-(pyridin-2-ylmethoxy)-pyrimidin-2-yl-amine] |
| 9.12 | Nc1nc(NCCCc2ccccc2)c(Br)c(-c2ccco2)n1 [Example 208, 5-Bromo-6-furan-2-yl-N4-(3-phenyl-propyl)-pyrimidine-2,4-diamine hydrochloride] |
| 5.89 | N#Cc1c(OCc2cccnc2)nc(N)nc1-c1ccco1 [Example 219, 2-Amino-4-furan-2-yl-6-(pyridin-3-ylmethoxy)-pyrimidine-5-carbonitrile] |
| 1.66 | Nc1nc(OCCCc2ccccc2)c(Br)c(-c2ccco2)n1 [Example 230, 5-Bromo-4-furan-2-yl-6-(3-phenyl-propoxy)-pyrimidin-2-yl-amine] |
| 8.13 | N#Cc1c(OCCNc2ccccc2)nc(N)nc1-c1ccco1 [Example 231, 2-Amino-4-furan-2-yl-6-(2-1-phenylamino-ethoxy)-pyrimidine-5-carbonitrile] |
| 2.75 | N#Cc1c(SCCc2ccccc2)nc(N)nc1-c1ccco1 [Example 233, 2-Amino-4-furan-2-yl-6-phenethylsulfanyl-pyrimidine-5-carbonitrile] |
| 5.5 | N#Cc1c(SCCCc2ccccc2)nc(N)nc1-c1ccco1 [Example 234, 2-Amino-4-furan-2-yl-6-(3-phenyl-propylsulfanl)-pyrimidine-5-carbonitrile] |
| 3.47 | N#Cc1c(NCCOc2ccccc2)nc(N)nc1-c1ccco1 [Example 235, 2-Amino-4-furan-2-yl-6-(2-phenoxy-ethylamino)-pyrimidine-5-carbonitrile] |
| 2.95 | Cc1cccc(COc2nc(N)nc(-c3ccco3)c2C#N)n1 [Example 237, 2-Amino-4-furan-2-yl-6-(6-methyl-pyridin-2-ylmethoxy)-pyrimidine-5-carbonitrile] |
| 2.19 | N#Cc1c(OCCc2ccccn2)nc(N)nc1-c1ccco1 [Example 241, 2-Amino-4-furan-2-yl-6-(2-pyridin-2-yl-ethoxy)-pyrimidine-5-carbonitrile] |
| 4.37 | Nc1nc(OCCCc2ccccc2)c(I)c(-c2ccco2)n1 [Example 267, 4-Furan-2-yl-5-iodo-6-(3-phenyl-propoxy)-pyrimidin-2-yl-amine] |
| 7.76 | Nc1nc(SCCc2ccccc2)c(Br)c(-c2ccco2)n1 [Example 269, 5-Bromo-4-furan-2-yl-6-phenethylsulfanyl-pyrimidin-2-yl-amine] |
| 3.72 | N#Cc1c(OCC=Cc2ccccc2)nc(N)nc1-c1ccco1 [Example 278, 2-Amino-4-furan-2-yl-6-(3-phenyl-allyloxy)-pyrimidine-5-carbonitrile] |
